According to patent publication US20010052137A1, “Axin domain-like polypeptide inhibitors of glycogen synthase kinase 3 beta activity and activators of wnt signaling” (Trustees of the University of Pennsylvania, priority 2000, published 2001):
Ends that are not written are not given here.

How the values were obtained:
GSK-3 beta [1] = assay: Co-immunoprecipitation of GSK-3 beta with Myc-tagged Xaxin constructs in Xenopus oocytes; assay type: binding; conditions: Myc-tagged construct co-expressed with GSK-3 beta in Xenopus oocytes; anti-Myc IP, anti-GSK-3 beta blot
GSK-3 beta [2] = assay: In ovo tau phosphorylation assay: GSK-3 beta and Xaxin constructs co-expressed in Xenopus oocytes; assay type: cell-based; conditions: construct co-expressed with GSK-3 beta in Xenopus oocytes; tau microinjected; PHF-1 immunoblot
Procedure: Stage VI Xenopus oocytes were isolated by collagenase treatment (Smith et al., 1994, Meth. Cell Biol. 36:45-58) and were injected with mRNA prepared by in vitro transcription (mMessage Machine™; Ambion, Austin, Tex.). 10 nanoliters of mRNA (containing 1-2 nanograms per nanoliter) was injected for each construct (unless otherwise specified), and the injected oocytes were incubated for 16 hours at 18° C. To analyze the effects of Xaxin constructs on dorsal-ventral pattern formation, Xenopus embryos were injected with 10 nanoliters of mRNA (0.1-0.2 nanogram per nanoliter) into one dorsal or ventral cell of a 4 cell embryo and dorsal axes were assessed at the tadpole stage. For Xaxin co-immunoprecipitation, fertilized eggs were injected with 10 nanoliters of Xaxin tagged with Myc, with hemagglutinin, or with both Myc and hemagglutinin (1 nanogram per nanoliter) and harvested at the blastula stage (stage 8).
In ovo phosphorylation of tau by GSK-3 beta was performed by microinjection of tau protein into oocytes expressing GSK-3 beta and Xaxin constructs. After 90 minutes, oocytes were homogenized and tau phosphorylation was analyzed in western blots using phospho-specific antibodies as described (Hedgepeth et al., 1997, Develop. Biol. 185:82-91). In vitro assays for GSK-3 beta activity were performed as described (Klein et al., 1996, Proc. Natl. Acad. Sci. USA 93:8455-8459). Recombinant GID-2/his protein (described below) was purified by affinity chromatography and added to in vitro assays at selected concentrations. […]
GSK-3 beta was expressed in oocytes together with Myc-tagged full length Xaxin or with the amino-terminal (amino acid residues 63-288), GID-1 (amino acid residues 277-545), or carboxyl-terminal (amino acid residues 429-713) fragments of Xaxin, as depicted in FIG. 1A. Purified tau protein was then microinjected into the oocytes, and phosphorylation of tau was measured by immunoblotting using antibody PHF-1 or with antibodies that detect all (i.e. phosphorylated and non-phosphorylated) forms of tau. […]

[3] = test system: LEF-1 dependent transcription (wnt signaling); assay: LEF-luciferase reporter of wnt signaling in 293T cells; assay type: cell-based; conditions: at 37°
Procedure: LEF-1 (also designated tcf) is a DNA-binding protein that also binds with beta-catenin. The beta-catenin/LEF-1 complex is known to activate transcription of wnt target genes. A genetic construct was made which comprised this LEF-1-binding promoter operably linked with a luciferase gene, for use as a reporter of wnt signaling.
Single plasmids encoding individual GID fragments were transfected into 293T cells, together with the LEF-luciferase reporter, and luciferase activity was measured after 24 hours. GID fragments induced up to 100- to 250-fold activation of LEF-luciferase (normalized to activity from the mutated LEF-reporter control, which was activated less than 2-fold).

Substance | binding with GSK-3 beta (co-immunoprecipitation) (GSK-3 beta [1]) | GSK-3 beta-mediated tau phosphorylation (GSK-3 beta activity) (GSK-3 beta [2]) | reduction of activity in LEF-luciferase assay compared to wild-type [3]
GID-3: Myc-tagged fragment, Xaxin amino acid residues 320-375 (DSEQQSMSSDADTMSLTDSSVDGIPPYRLRKHYRREMQESANANGRGPLPHIPRTY; also: Myc-tagged fragment) | did not bind | no effect | 
GID-5: Myc-tagged fragment, Xaxin amino acid residues 380-429 (DIHVDPEKFAAELISRLEGVLRDREAEQKLEERLKRVRAEEEGDDGDVSS; also: Myc-tagged fragment) | bound | inhibited | 
GID-6: Myc-tagged fragment, Xaxin amino acid residues 380-404 (SEQ ID NO: 1) (DIHVDPEKFAAELISRLEGVLRDRE; also: Myc tag) | bound | inhibited | 
GID5-6FY: GID mutant in which phenylalanine-388 is replaced with a tyrosine residue (DIHVDPEKYAAELISRLEGVLRDRE) |  |  | approximately 10 fold
